Laboratory results reported in US20230109717A1 (GAIA BioMedicine Inc., priority 2020, published 2023).
“Also recorded” adds a separate entry of the source.

Experiments:
K562 cells = assay: Cytotoxic activity rate (% Lysis) of freeze-thawed highly active NK cells against K562 cells; assay type: cell-based; settings: for Activity: Exmp. 7, collect. method 2
Procedure: Cytotoxic activity can be expressed as the percentage of target cells killed by effector cells, and is calculated in accordance with the following equation.
(Cell death observed in co-culture with effector cells−Spontaneous cell death (negative control))/(Maximum cell death (positive control)−Spontaneous cell death (negative control))×100
For the measurement of cytotoxic activity, a group of the K562 cells reacted with the NK cells, a group consisting solely of the K562 cells as a negative control, and a group of the K562 cells fixed with 10% formalin as a positive control were prepared.
After incubation for the times indicated for the groups, the cells were collected, and prepared at a density of 2×10^6 cells/mL in 10% FBS/RPMI 1640.
The K562 cells (human chronic myelogenous leukemia cell line) were suspended in serum-free RPMI 1640 medium, stained with PKH26 Red Fluorescent Cell Linker Kit (Sigma, PKH26GL-1KT), and finally prepared at a density of 2×10^6 cells/mL in 10% FBS/RPMI 1640.
The NK cells and K562 cells were added and mixed in wells of 96-well plate (IWAKI, 4870-800SP) at a cell ratio of 1:1, and allowed to react at 37° C. for 2 hours under 5% CO2. After the reaction, the plate was centrifuged (500×g, 5 minutes), and the supernatant was removed. Then, a 7-AAD solution diluted with PBS was added to the cells to suspend the cells, and the suspension was incubated at room temperature for 20 minutes. […]
For the measurement of cytotoxic activity, a group of the NK cells reacted with the K562 cells, a group solely consisting of the K562 cells as a negative control, and a group of the K562 cells fixed with 10% formalin as a positive control were prepared.
The cells were thawed and diluted by the method described above, and a necessary amount of the cells were taken on the basis of the number of viable cells at the time of freezing, and then prepared at a density of 2×10^6 cells/mL in 10% FBS/RPMI 1640.
The K562 cells were suspended in serum-free RPMI 1640 medium, stained with PKH26 Red Fluorescent Cell Linker Kit, and then prepared at a density of 2×10^6 cells/mL in 10% FBS/RPMI 1640. […]
For the measurement of cytotoxic activity, a group of NK cells reacted with K562 cells, a group of K562 cells only as a negative control, and a group of K562 cells fixed with 10% formalin as a positive control were prepared. […]
(9-2) Cytotoxic activity was measured in the same manner as described in the section of (9-1), but after thawing and dilution, the cells were left to stand for up to 6 hours, and cytotoxic activity was measured by the method described in the section b) mentioned above at the time points of 2, 5, and 6 hours. In detail, the NK cells and K562 cells were added to each well of a 96-well plate (IWAKI, 4870-800SP) at a cell ratio of 1:1, mixed, and then allowed to react at 37° C. for 2 hours under 5% CO2.

highly active NK cells = assay: Viable cell count and recovery rate of highly active NK cells after thawing, based on cell number at freezing; design: species or system human
Procedure: After the thawing, all the dilution and incubation operations were performed on a low-absorption 6-well plate.
The cells of the groups diluted in the media were incubated overnight at 37° C. under 5% CO2, and then the numbers of viable cells were counted. The experimental conditions are summarized below.
The NK cells obtained by the collection method 1 were suspended in PBS, and incubated at room temperature for 1 hour. The NK cells obtained by the collection method 2 were suspended in (1) the KBM501 medium, (2) KBM501 medium containing 30 μM 4-phenylbutyric acid, (3) KBM501 medium containing 30 μM tauroursodeoxycholic acid dihydrate (TUDCA, Tokyo Kasei Kogyo, T1567), and (4) KBM501 medium containing 30 μM 4-phenylbutyric acid and 30 μM TUDCA, and incubated at 37° C. for 2 hours under 5% CO2. […] After 1 hour, the cells were gently suspended, and number of viable cells was counted. After another 5-fold dilution in the KBM501 medium and incubation at 37° C. for 2 hours under 5% CO2, number of viable cells was counted, and the recovery rate based on the number of cells at the time of freezing was calculated.
(§1) After 1 and 3 hours, the cells were gently suspended, and viable cells were counted. In addition, after 1 hour, the cells were diluted 5-fold in the KBM501 medium, and incubated at 37° C. for 2 hours under 5% CO2, and viable cell were counted. Recovery rate of viable cells after the thawing based on the cell number at the time of freezing was calculated using the number of viable cells at each time point.
as §1, with “on the basis of” for “using”, “point after the thawing.” for “point.”

SKOV3 sphere = assay: Evaluation of thawed highly active NK cells in a solid tumor model (3D killing assay); assay type: cell-based, human; settings: added before freezing at 800 μM (preferable between 2,400 μM and 267 μM)
Procedure: To one of SKOV3 sphere inoculated beforehand in each well of a […] plate, 50 μL of the prepared NK cells were added, and allowed to react for 4 days at 37° C. under 5% CO2. Then, the cells were detached with Accutase, collected, and cultured in the RPMI medium on a 24-well plate for expansion. After 17 days of the expansion culture at 37° C. under 5% CO2, the cells were fixed with 4% PFA, stained with DAPI, and observed under a fluorescence microscope (BZ-9000, KEYENCE), and BZ-II Analysis Application was used to quantify the area of SKOV3 that was not injured by the NK cells.
The SKOV3 cells (human ovarian cancer cell line) were prepared at a density of 3×10^4 cells/mL in 10% FBS/RPMI 1640, and inoculated onto a 96-well plate in an amount of 3×10^3 cells/100 μL per well. Spheres were prepared by incubating the cells at 37° C. for 3 days under 5% CO2.

## C[C@H](CCC(=O)NCCS(=O)(=O)O)[C@H]1CC[C@H]2[C@@H]3[C@@H](O)C[C@@H]4C[C@H](O)CC[C@]4(C)[C@H]3CC[C@]12C [TUDCA, tauroursodeoxycholic acid dihydrate]
K562 cells; pretreatment KBM + 266 μM TUDCA 2 h, thawing PlasmaLyte + IL-2, R.T. 1 h
  Activity: A (A means 70% or higher)
K562 cells; pretreatment KBM + 266 μM TUDCA 2 h, thawing PlasmaLyte + IL-2, R.T. 1 h, then KBM 2 h
  Activity: A (A means 70% or higher)
K562 cells; pretreatment KBM + 266 μM TUDCA 2 h, thawing PlasmaLyte + IL-2, R.T. 3 h
  Activity: A (A means 70% or higher)
K562 cells; pretreatment KBM + 266 μM TUDCA 2 h, thawing PlasmaLyte R.T. 1 h
  Activity: A (A means 70% or higher)
K562 cells; pretreatment KBM + 266 μM TUDCA 2 h, thawing PlasmaLyte R.T. 1 h, then KBM 2 h
  Activity: A (A means 70% or higher)
K562 cells; pretreatment KBM + 266 μM TUDCA 2 h, thawing PlasmaLyte R.T. 3 h
  Activity: A (A means 70% or higher)
K562 cells; pretreatment KBM + 800 μM TUDCA 2 h, thawing PlasmaLyte + IL-2, R.T. 1 h
  Activity: A (A means 70% or higher)
K562 cells; pretreatment KBM + 800 μM TUDCA 2 h, thawing PlasmaLyte + IL-2, R.T. 1 h, then KBM 2 h
  Activity: A (A means 70% or higher)
K562 cells; pretreatment KBM + 800 μM TUDCA 2 h, thawing PlasmaLyte + IL-2, R.T. 3 h
  Activity: A (A means 70% or higher)
K562 cells; pretreatment KBM + 800 μM TUDCA 2 h, thawing PlasmaLyte R.T. 1 h
  Activity: A (A means 70% or higher)
K562 cells; pretreatment KBM + 800 μM TUDCA 2 h, thawing PlasmaLyte R.T. 1 h, then KBM 2 h
  Activity: A (A means 70% or higher)
K562 cells; pretreatment KBM + 800 μM TUDCA 2 h, thawing PlasmaLyte R.T. 3 h
  Activity: A (A means 70% or higher)
K562 cells; pretreatment KBM + 2400 μM TUDCA 2 h, thawing PlasmaLyte + IL-2, R.T. 1 h
  Activity: A (A means 70% or higher)
K562 cells; pretreatment KBM + 2400 μM TUDCA 2 h, thawing PlasmaLyte + IL-2, R.T. 1 h, then KBM 2 h
  Activity: A (A means 70% or higher)
K562 cells; pretreatment KBM + 2400 μM TUDCA 2 h, thawing PlasmaLyte + IL-2, R.T. 3 h
  Activity: A (A means 70% or higher)
K562 cells; pretreatment KBM + 2400 μM TUDCA 2 h, thawing PlasmaLyte R.T. 1 h
  Activity: A (A means 70% or higher)
K562 cells; pretreatment KBM + 2400 μM TUDCA 2 h, thawing PlasmaLyte R.T. 1 h, then KBM 2 h
  Activity: A (A means 70% or higher)
K562 cells; pretreatment KBM + 2400 μM TUDCA 2 h, thawing PlasmaLyte R.T. 3 h
  Activity: A (A means 70% or higher)
K562 cells; pretreatment 2 hours, 10 to 810 μM, Plasma-Lyte A after thawing, 1 and 3 hours, K562, E:T 2:1, 2 hours, Example 6, dihydrate
  Cytotoxic activity of frozen and thawed highly active NK cells: Improvement of the cytotoxic activity; also recorded: improved in a TUDCA concentration-dependent manner
Highly active NK cells; added before freezing at 800 μM (preferable between 2,400 μM and 267 μM)
  Recovery rate: higher recovery rate
Highly active NK cells; pretreatment 2 hours with KBM501 medium supplemented with 30 μM additive before freezing, Example 5
  Recovery rate after the thawing: improved
Highly active NK cells; pretreatment with KBM501 medium supplemented at various concentrations (266 to 2400 μM), Example 7
  Recovery rate after thawing: improved
Highly active NK cells; pretreatment with KBM501 medium supplemented with various concentrations (10 to 810 μM), Example 6
  Recovery rate after the thawing: improved
SKOV3 sphere
  Killing activity against the solid tumor model: higher killing activity
